Data on 3 molecules can be found in publication PMC3284447, “In vivo antinociception of potent mu opioid agonist tetrapeptide analogues and comparison with a compact opioid agonist - neurokinin 1 receptor antagonist chimera” (Molecular Brain, 2012).

Test [1] concerns male C57Bl6 mice. In words: hot water tail-flick test, tolerance after daily i.v. administration for 5 days. It counts as in vivo, mouse. As to conditions: for tolerance development after repetitive administration: daily for 5 days, i.v. (morphine i.p.), measured on day 5. The procedure: (§1) Nociceptive responses to thermally-induced pain were assessed by the hot water tail-flick test using male C57Bl6 mice. Animals (weighing 25-28 g) were maintained on a normal light-dark cycle and testing occurred during the light cycle. Mice were injected intravenously (i.v.) with the examined drug, dissolved in saline, at different doses. For the verification of drug-induced antinociceptive tolerance, the investigated compounds were administered (i.v.) once per day for 5 days (2 and 4 mg/kg for SBCHM01 and 4 mg/kg for both AN81 and BVD03) and the analgesic effect was measured on the first and the fifth day of the experiment. In each case (both acute and chronic treatment) the effect was measured over a minimum time period of 120 minutes. The antinociceptive effect was measured in triplicate at the following time points post-injection: 5, 15, 30, 60, 120 min (and 180 min for SBCHM01; due to the strong and long-lasting analgesic effect produced by AN81 (Figure 2C), there was no possibility to prolong the experiment, which - if prolonged - could in consequence cause major damage to the animal's tail, thus giving spurious nociceptive responses). Responses to thermal hot stimulus were assessed by the latency with which the mouse removed its tail from 55°C water. A cut-off time of 10 s was used in order to prevent tissue damage.
(§2) In order to compare the antinociceptive effect induced by the examined drugs, morphine was used as a standard reference.
(§3) Data are presented as means ± standard errors of the mean (SEM). All of the calculations and statistical analysis were performed using Prism 5.0 (Graph Pad Software, San Diego, CA, USA). The nociceptive scores were analyzed using a two-way Anova with Bonferroni's post hoc test. The p value (the value of probability) as well as inferential statistics - F test, which include information about the obtained magnitude or value of the test statistic and degrees of freedom, are represented.

Test [2] relates to male CD1 mice. As to the kind of experiment: radiant heat tail-flick test after s.c. administration. It counts as in vivo, mouse. The procedure: as §2
In order to determine the duration of drug activity, s.c. drug administration into male CD1 mice (27-33 g; Charles River Laboratories, Sulzfeld, Germany) was performed. In addition to a thermal nociceptive stimulus, the alternative light beam-based tail-flick assay was performed using an UB 37360 Ugo Basile analgesiometer (Ugo Basile s.r.l., Varese, Italy). The reaction time required by the mouse to remove its tail due to the radiant heat was measured and defined as the tail-flick latency. A cut-off time of 10 s was used in order to minimize tissue damage. Tail-flick latencies were measured before (baseline) and after drug s.c. administration (30 min, 1 h, 2 h, 3 h, 4 h, 5 h, 6 h and 7 h), the antinociceptive effect was scored as a percentage of the maximal possible effect (% MPE), according to formula presented above. Drugs were dissolved in sterile physiological saline (0.9%) and were administered s.c. in a volume of 10 μl per 1 g body weight. The animal procedures were approved by the Austrian Ethical Committee on Animal Care and Use in line with international laws and policies.
as §3
For orientation: Hot-plate and tail-flick tests time the reaction to a heat stimulus.

For test [3], the target named is MOR. Also noted: method as in PMID 21413804. As to conditions: [^3H]DAMGO, rat brain membrane; cited from earlier work.
For test [4], the system named is MOR/DOR. The conditions noted are these: cited from earlier work. The source says:
The structure differs from BVD03 only in the amide nitrogen N-methyl group and side chain of the second residue in the peptide sequence (Figure 1). When an activity comparison is made between the two ...

Test [5] deals with DOR. Also noted: method as in PMID 21413804. The conditions noted are these: [^3H]DSLET, rat brain membrane; cited from earlier work.
Test [6] relates to MOR. More on the design: method as in PMID 21413804. The conditions noted are these: GPI tissue bioassay; means of 3-6 experiments ± SEM; cited from earlier work.
For test [7], the target named is KOR. As to conditions: cited from earlier work. The source says: Table 1 In vitro functional activities and affinities of opioid- and opioid-NK1 ligands | column: KOR Ki (nM)^e, f
Test [8] has as its system DOR. More on the design: method as in PMID 21413804. The conditions noted are these: MVD tissue bioassay; means of 3-6 experiments ± SEM; cited from earlier work.
Test [9] relates to male C57Bl6 mice. In words: hot water tail-flick test, acute antinociception after i.v. administration. Type of test: in vivo, mouse. As to conditions: for analgesic effect compared with morphine: morphine 4 mg/kg i.p. The protocol:
as §1, §2, §3

Test [10] relates to MOR. As to conditions: forskolin-stimulated cAMP accumulation, agonist; cited from earlier work. The source says: Table 1 In vitro functional activities and affinities of opioid- and opioid-NK1 ligands | column: MOR EC50 (nM)^c, d || The potent antinociceptive effects of the investigated structures after peripheral administration indicate that all four peptidic compounds are able to cross the BBB. […] The observed effects are in agreement with earlier in vitro binding data obtained for these peptides (BVD02 ...
A general note: cAMP levels reflect the balance of adenylyl cyclase and phosphodiesterase activity.

Test [11] deals with DOR. The conditions noted are these: forskolin-stimulated cAMP accumulation, agonist; cited from earlier work. The source says:
Table 1 In vitro functional activities and affinities of opioid- and opioid-NK1 ligands | column: DOR EC50 (nM)^c, d || The potent antinociceptive effects of the investigated structures after peripheral administration indicate that all four peptidic compounds are able to cross the BBB. […] The observed effects are in agreement with earlier in vitro binding data obtained for these peptides (BVD02 ...

In test [12] the target is MOR. As to conditions: [^3H]diprenorphine, HEK293 cells stably expressing MOR; cited from earlier work. The source says:
Table 1 In vitro functional activities and affinities of opioid- and opioid-NK1 ligands | column: MOR Ki (nM)^e, f || The potent antinociceptive effects of the investigated structures after peripheral administration indicate that all four peptidic compounds are able to cross the BBB. […] The observed effects are in agreement with earlier in vitro binding data obtained for these peptides (BVD02 ...

Test [13] has as its target DOR. As to conditions: [^3H]diprenorphine, HEK293 cells stably expressing DOR; cited from earlier work. The source says:
Table 1 In vitro functional activities and affinities of opioid- and opioid-NK1 ligands | column: DOR Ki (nM)^e, f || The potent antinociceptive effects of the investigated structures after peripheral administration indicate that all four peptidic compounds are able to cross the BBB. […] The observed effects are in agreement with earlier in vitro binding data obtained for these peptides (BVD02 ...

[14] abbreviates: i.v., 1 mg/kg, 30 min, ± SEM of 6-10 mice, p > 0.05 vs morphine.

“Also recorded” adds a separate entry of the source. Where two headings read alike, the source gives them in different places. Square brackets hold non-standard residues; d marks the D form. Dmt = Cc1cc(O)cc(C)c1C[C@H](N)C(=O)O; dNMeA = CN[C@H](C)C(=O)O; Sar = CNCC(=O)O A value given as a limit tells only on which side of the number the result lay.

The Ki is a measure of affinity in units of concentration, obtained from inhibition or displacement. The EC50 is the concentration that produces a half-maximal response.

Regarding `CN1CC[C@]23c4c5ccc(O)c4O[C@H]2[C@@H](O)C=C[C@H]3[C@H]1C5` [morphine, reference compound], the “tolerance development after repetitive administration” value in test [1] is “mice had developed opioid-induced tolerance”. Further, the “potency at 180 min” value in test [1] (day 1, SBCHM01 2 mg/kg i.v., morphine 4 mg/kg i.p.) was “decrease in potency is clearly visible”. Besides, the duration of analgesia result in test [2] (morphine s.c., more elevated doses relative to AN81) is on record as “activity drops rapidly over time; also recorded: lost almost all activity over a time period of 2 hours”.

With H-Dmt-D-Arg-Aba-Gly-NH2 [AN81], the Ki in [3] is 0.00015 ± 2e-05 µM; in [5], 0.0006 ± 7e-05 µM; in test [7] ([^3H]U69,593, guinea pig brain membrane), 0.118 ± 0.012 µM. In addition, the “in vitro agonist profile” value in [4] is “superagonist profile; also recorded: full MOR/DOR agonist with subnanomolar affinity and tissue bioactivity”. The “tolerance compared to morphine” value in test [1] (5 days repetitive administration) was “markedly lower”. In addition, the “tolerance development after repetitive administration” value in test [1] is “leads to the development of tolerance; also recorded: partial preservation of analgesia observed after repetitive administration; also recorded: appeared to still induce the development of tolerance”. Besides, the “%MPE” value in [1] (day 5, i.v., 4 mg/kg daily, last time point (120 min), ± SEM of 7-10 animals, p < 0.001) was 15.83% ± 4.40; in test [2] (s.c., 1 mg/kg, 7 h, ± SEM of 5-6 mice), 38.4 ± 7.8%; in test [9] (i.v., 0.1 mg/kg, 2 h, ± SEM of 6-10 mice, p < 0.05 vs morphine) it was 61.2 ± 6.45%; in test [9] (setting [14]), 95 ± 2.89%; in test [9] (i.v., 4 mg/kg, 30 min, 6-10 mice, p > 0.05 vs morphine), 100%. In addition, the results for the EC50 in [6] and in [8] were 0.00032 ± 4e-05 µM and 0.00042 ± 2e-05 µM, respectively. For the same molecule, the duration of antinociception result in test [2] (abstract: very low doses (0.1 mg/kg)) is on record as “up to 7 hours”. Also, the “time of peak antinociception” value in test [2] (s.c., 0.2, 0.5 and 1 mg/kg, 5-6 mice) was 1 h. Further, the duration of analgesia entry in test [2] (s.c., 1, 0.5 and 0.2 mg/kg) is on record as “up to 7 hours”. Moreover, the “overall analgesic effect after systemic administration” value in test [9] (compared among the peptides of the study) was “strongest analgesic effect”. Moreover, the “analgesic effect compared with morphine” value in test [9] (i.v., 0.1 mg/kg, 15 min and 120 min) was “significantly lower analgesic effect”; in [9] (i.v., 4, 1 and 0.5 mg/kg, all time points, p > 0.05) it was “no difference in the analgesic effect”.

“H-[Dmt][dNMeA]F[Sar]-NH2 [BVD02, opioid tetrapeptide, "ring opened" analogue]”: the EC50 in test [10] is 79 ± 6.5 pM; in test [11], 4.4 ± 0.5 µM. The inhibitory constant (Ki) in test [12] was 0.06 ± 0.003 µM; in test [13] it was 0.13 ± 0.005 µM; in [7] ([^3H]diprenorphine, HEK293 cells stably expressing KOR), greater than 1000 µM. The “%MPE” value in test [9] (i.v., 0.5 mg/kg, 60 min, ± SEM of 6-10 mice, p > 0.05 vs morphine) turned out to be 56.77 ± 13.57%; in test [9] (setting [14]), 74.77 ± 13.63%; in test [9] (i.v., 5 mg/kg, 15 min post-injection, 6-10 mice, unchanged within the next hour) it was 100%; in [9] (i.v., 5 mg/kg, 2 h, ± SEM of 6-10 mice, p > 0.05) it was 96 ± 4%. In addition, the “antinociceptive activity at 120 min compared to morphine” value in test [9] (i.v., 1 and 0.5 mg/kg, 120 min, p < 0.001 vs morphine) is listed as “dramatic reduction of activity”.
